Laboratory results as given in patent US20260061084A1, “FIBROBLAST ACTIVATION PROTEIN (FAP) INHIBITORS, FAP CONJUGATES, AND DIAGNOSTIC AND THERAPEUTIC USES THEREOF” (Nuclidium AG, priority 2022, published 2026).

How the values were obtained:
[1] = system: HT-1080.hFAP (FAP-positive) cells; test: In vitro cellular uptake (cell surface-bound and internalized fractions); type: cell-based, human; settings: 37° C., specific uptake (HT-1080.wt subtracted)
Method: The cellular uptake was studied in vitro using intact cells seeded in 6-well plates overnight. […] At each investigated time point, the medium containing the unbound (free) radiotracer was removed, followed by two washing steps with ice-cold phosphate-buffered saline. The cells were then treated 2×5 min with ice-cold glycine solution (0.05 M, pH 2.8) to detach the cell surface-bound radiotracer (acid released). Afterwards, the cells containing the internalized radiotracer were detached with 1 M NaOH at 37° C. and collected for measurement. The amount of specific cell surface-bound and internalized radiotracer is expressed as percentage of the total applied activity, after subtracting the non-specific values.
The cells were then preconditioned in 360 μL of assay medium (MEM medium without supplements) at 37° C. for 60 min. 40 μL of a 2 nM solution of ^61Cu-labeled radioligand was added and the cells were incubated at 37° C. The cellular uptake was interrupted at different time points (15 min, 1 hour and 4 hours), by washing twice with ice-cold PBS. Cell surface-bound radioligand was obtained by washing cells twice with ice-cold glycine buffer (pH 2.8), followed by a collection of the internalized fraction with 1 M NaOH. The activity in each fraction was measured in a […] (Cobra II).

[2] = system: HT-1080.hFAP tumor-bearing mice; test: Biodistribution studies in xenografted mice; type: in vivo; settings: for Biodistribution: Spleen / Biodistribution: Heart / Biodistribution: Liver / Biodistribution: Lung / Biodistribution: Stomach / Biodistribution: HT-1080.wt / Biodistribution: HT-1080.hFAP / Biodistribution: Intestine / Biodistribution: Muscle / Biodistribution: Adrenal / Biodistribution: Blood / Biodistribution: Kidneys / Biodistribution: Pancreas: i.v.; for Biodistribution: HT-1080.wt: FAP-negative tumor; for Biodistribution: HT-1080.hFAP: FAP-positive tumor; for Accumulation in FAP-positive (HT-1080.hFAP) tumor and murine-FAP-positive tissues, such as the bone marrow (bones): xenografted mice, 1 h and 4 h p.i.
Method: The tumors were allowed to grow to an average volume of 100-200 mm^3.
Biodistribution Studies: The xenografted mice were randomized (n=5 per group) and injected intravenously via the tail vein with the ^61Cu-labeled radioligands (100 μL, […], 0.8-1MBq). Mice were euthanized 1 h and 4 h p.i. by CO2 asphyxiation. Organs of interest and blood were collected, rinsed of excess blood, blotted dry, weighed, and counted in a […]. The samples were counted against a suitably diluted aliquot of the injected solution as the standard and the results are expressed as the percentage of the injected activity per gram of tissue (% I.A./g) ±SD.

[3] = system: Mice bearing FAP-positive and FAP-negative xenografts; test: PET/CT imaging: remaining PET activity in the mouse body; type: in vivo
Method: The mice were euthanized by CO2 at 4 hours p.i., and static PET scans were acquired for 30 min.
PET/CT images were acquired using β-CUBE PET scanner system (Molecubes, Gent, Belgium), with a spatial resolution of 0.85 mm and an axial field-of-view of 13 cm. Dynamic PET scans were acquired for 60 min. All PET scans were decay corrected and reconstructed into a 192×192×384 matrix by an ordered subsets maximization expectation (OSEM) algorithm using 30 iterations, a voxel size of 400×400×400 μm a 15 min per frame. CT data was used to apply attenuation correction on the PET data. The CT was imaged supine, head first, using the NanoSPECT/CTTM scanner (Bioscan Inc.). Topograms and helical CT scans of the whole mouse were first acquired using the following parameters: X-ray tube current: 177 μA, X-ray tube voltage 45 kVp, 90 seconds and 180 frames per rotation, pitch 1. CT images were reconstructed using CTReco (version r1.146), with a standard filtered back projection algorithm (exact cone beam) and post-filtered (RamLak, 100% frequency cut-off), resulting in a pixel size of 0.2 mm. Co-registered PET/CT images were visualized using maximum intensity projection (MIP) with VivoQuant software (version 4.0).

Biodistribution: Spleen ([2]; 1 hour p.i.)	Biodistribution: Heart ([2]; 4 hours p.i.)	Biodistribution: Liver ([2]; 4 hours p.i.)	Biodistribution: Lung ([2]; 4 hours p.i.)	Biodistribution: Spleen ([2]; 4 hours p.i.)	Biodistribution: Stomach ([2]; 4 hours p.i.)	Biodistribution: HT-1080.wt ([2]; 1 hour p.i.)	Biodistribution: HT-1080.wt ([2]; 4 hours p.i.)	Biodistribution: HT-1080.hFAP ([2]; 1 hour p.i.)	Biodistribution: HT-1080.hFAP ([2]; 4 hours p.i.)	Accumulation in FAP-positive (HT-1080.hFAP) tumor and murine-FAP-positive tissues, such as the bone marrow (bones) [2]	Biodistribution: Heart ([2]; 1 hour p.i.)	Biodistribution: Intestine ([2]; 1 hour p.i.)	Biodistribution: Liver ([2]; 1 hour p.i.)	SMILES	Cell surface fraction ([1]; 15 min)	Internalized fraction ([1]; 30 min)	Cell surface fraction ([1]; 60 min)	Internalized fraction ([1]; 60 min)	Cell surface fraction ([1]; 240 min)	Internalized fraction ([1]; 240 min)	also measured
0.8 ± 0.1 % I.A./g	0.7 ± 0.1 % I.A./g	1.0 ± 0.2 % I.A./g	0.8 ± 0.2 % I.A./g	0.5 ± 0.1 % I.A./g	0.7 ± 0.1 % I.A./g	4.5 ± 0.6 % I.A./g	2.1 ± 0.5 % I.A./g	12.6 ± 1.5 % I.A./g	7.1 ± 3.0 % I.A./g	high accumulation				N#CC1CC(F)(F)CN1C(=O)CNC(=O)c1ccnc2ccc(NC(=O)CCC(=O)NCCNC(=O)CCC(C(=O)O)N3CCN(CC(=O)[O-])CCN(CC(=O)[O-])CC3)cc12.[61Cu+2] (centres unmarked) [[^61Cu]Cu-NODAGA-1]	1.2 ± 0.3 % of the applied activity	26.2 ± 3.5 % of the applied activity	1.4 ± 0.3 % of the applied activity	29.9 ± 1.8 % of the applied activity	1.3 ± 0.2 % of the applied activity	29.3 ± 1.8 % of the applied activity	Retention in the body (remaining PET activity 4 h p.i.), in words [3]: highest retention in the body
0.4 ± 0.1 % I.A./g	0.3 ± 0.0 % I.A./g	0.6 ± 0.1 % I.A./g	0.4 ± 0.0 % I.A./g	0.2 ± 0.0 % I.A./g	0.3 ± 0.1 % I.A./g	1.4 ± 0.2 % I.A./g	0.9 ± 0.1 % I.A./g	3.5 ± 1.0 % I.A./g	4.0 ± 0.6 % I.A./g	high accumulation	0.6 ± 0.1 % I.A./g	0.5 ± 0.1 % I.A./g	0.6 ± 0.1 % I.A./g	CN(C(=O)CCC(=O)NCCNC(=O)CCC(C(=O)O)N1CCN(CC(=O)[O-])CCN(CC(=O)[O-])CC1)c1ccc2nccc(C(=O)NCC(=O)N3CC(F)(F)CC3C#N)c2c1.[61Cu+2] (centres unmarked) [[^61Cu]Cu-NODAGA-2]	1.2 ± 0.6 % of the applied activity	20.7 ± 5.5 % of the applied activity	1.4 ± 0.5 % of the applied activity	27.0 ± 6.9 % of the applied activity	1.3 ± 0.5 % of the applied activity	28.3 ± 7.5 % of the applied activity	Biodistribution: Lung ([2]; 1 hour p.i.): 0.8 ± 0.1 % I.A./g; Biodistribution: Muscle ([2]; 1 hour p.i.): 0.9 ± 0.1 % I.A./g; Biodistribution: Stomach ([2]; 1 hour p.i.): 0.6 ± 0.1 % I.A./g; Biodistribution: Adrenal ([2]; 4 hours p.i.): 0.3 ± 0.1 % I.A./g; Biodistribution: Blood ([2]; 4 hours p.i.): 0.5 ± 0.1 % I.A./g; Biodistribution: Intestine ([2]; 4 hours p.i.): 0.3 ± 0.1 % I.A./g; Biodistribution: Kidneys ([2]; 4 hours p.i.): 1.0 ± 0.1 % I.A./g; Biodistribution: Muscle ([2]; 4 hours p.i.): 0.4 ± 0.1 % I.A./g; Biodistribution: Pancreas ([2]; 4 hours p.i.): 0.5 ± 0.0 % I.A./g
0.5 ± 0.1 % I.A./g	0.5 ± 0.0 % I.A./g	0.7 ± 0.1 % I.A./g	0.7 ± 0.1 % I.A./g	0.3 ± 0.0 % I.A./g	0.5 ± 0.0 % I.A./g	4.0 ± 2.2 % I.A./g	1.8 ± 0.3 % I.A./g	7.9 ± 0.9 % I.A./g	6.4 ± 2.0 % I.A./g	high accumulation	0.7 ± 0.1 % I.A./g	0.8 ± 0.2 % I.A./g	0.9 ± 0.1 % I.A./g	N#CC1CC(F)(F)CN1C(=O)CNC(=O)c1ccnc2ccc(NC(=O)CCC(=O)N3CCN(C(=O)CCC(C(=O)O)N4CCN(CC(=O)[O-])CCN(CC(=O)[O-])CC4)CC3)cc12.[61Cu+2] (centres unmarked) [[^61Cu]Cu-NODAGA-3]	0.9 ± 0.3 % of the applied activity	26.6 ± 4.9 % of the applied activity	1.2 ± 0.4 % of the applied activity	36.9 ± 5.3 % of the applied activity	1.4 ± 0.4 % of the applied activity	39.4 ± 4.8 % of the applied activity	Biodistribution: Stomach ([2]; 1 hour p.i.): 0.8 ± 0.1 % I.A./g; Biodistribution: Blood ([2]; 4 hours p.i.): 0.9 ± 0.0 % I.A./g; Biodistribution: Intestine ([2]; 4 hours p.i.): 0.4 ± 0.1 % I.A./g; Biodistribution: Kidneys ([2]; 4 hours p.i.): 1.0 ± 0.2 % I.A./g; Biodistribution: Pancreas ([2]; 4 hours p.i.): 0.9 ± 0.0 % I.A./g
0.4 ± 0.0 % I.A./g	0.2 ± 0.0 % I.A./g	0.4 ± 0.0 % I.A./g	0.3 ± 0.0 % I.A./g	0.2 ± 0.0 % I.A./g	0.2 ± 0.0 % I.A./g	1.7 ± 0.2 % I.A./g	0.6 ± 0.0 % I.A./g	7.4 ± 1.6 % I.A./g	3.0 ± 0.8 % I.A./g	high accumulation	0.6 ± 0.0 % I.A./g	0.5 ± 0.2 % I.A./g	0.6 ± 0.1 % I.A./g	CN(C(=O)CCC(=O)N1CCN(C(=O)CCC(C(=O)O)N2CCN(CC(=O)[O-])CCN(CC(=O)[O-])CC2)CC1)c1ccc2nccc(C(=O)NCC(=O)N3CC(F)(F)CC3C#N)c2c1.[61Cu+2] (centres unmarked) [[^61Cu]Cu-NODAGA-4]	1.0 ± 0.7 % of the applied activity	22.2 ± 7.4 % of the applied activity	1.4 ± 0.4 % of the applied activity	22.2 ± 5.1 % of the applied activity	0.9 ± 0.6 % of the applied activity	17.4 ± 4.4 % of the applied activity	Biodistribution: Lung ([2]; 1 hour p.i.): 0.9 ± 0.1 % I.A./g; Biodistribution: Muscle ([2]; 1 hour p.i.): 0.8 ± 0.2 % I.A./g; Biodistribution: Stomach ([2]; 1 hour p.i.): 0.5 ± 0.0 % I.A./g; Biodistribution: Adrenal ([2]; 4 hours p.i.): 0.5 ± 0.1 % I.A./g; Biodistribution: Blood ([2]; 4 hours p.i.): 0.4 ± 0.1 % I.A./g; Biodistribution: Intestine ([2]; 4 hours p.i.): 0.3 ± 0.1 % I.A./g; Biodistribution: Muscle ([2]; 4 hours p.i.): 0.4 ± 0.1 % I.A./g; Biodistribution: Pancreas ([2]; 4 hours p.i.): 0.4 ± 0.1 % I.A./g; Retention in the body (remaining PET activity 4 h p.i.), in words [3]: lowest value
